Measurements as given in ChEMBL document CHEMBL3351764, “Design, synthesis and biological activity of flavonoid derivatives as selective agonists for neuromedin U 2 receptor” (Bioorg Med Chem, 2014).
Activity calls are given as the source filed them.

What was measured:
[1] = target: Melanocyte-stimulating hormone receptor (Homo sapiens) (UniProt Q01726); assay: Agonist activity at human MC1 receptor at 100 uM to 5 mM
[2] = target: Melanocortin receptor 4 (Homo sapiens) (UniProt P32245); assay: Agonist activity at human MC4 receptor at 100 uM to 5 mM
[3] = target: Melanocyte-stimulating hormone receptor (Mus musculus) (UniProt Q01727); assay: Agonist activity at mouse MC1 receptor at 100 uM to 5 mM
[4] = target: Adrenocorticotropic hormone receptor (Mus musculus) (UniProt Q64326); assay: Agonist activity at mouse MC2 receptor at 100 uM to 5 mM
[5] = target: T1, 5-hydroxytryptamine receptor 2C (Homo sapiens) (UniProt P28335); assay: Agonist activity at human 5HT2C receptor at 100 uM to 5 mM
T1 sequence (whole entry): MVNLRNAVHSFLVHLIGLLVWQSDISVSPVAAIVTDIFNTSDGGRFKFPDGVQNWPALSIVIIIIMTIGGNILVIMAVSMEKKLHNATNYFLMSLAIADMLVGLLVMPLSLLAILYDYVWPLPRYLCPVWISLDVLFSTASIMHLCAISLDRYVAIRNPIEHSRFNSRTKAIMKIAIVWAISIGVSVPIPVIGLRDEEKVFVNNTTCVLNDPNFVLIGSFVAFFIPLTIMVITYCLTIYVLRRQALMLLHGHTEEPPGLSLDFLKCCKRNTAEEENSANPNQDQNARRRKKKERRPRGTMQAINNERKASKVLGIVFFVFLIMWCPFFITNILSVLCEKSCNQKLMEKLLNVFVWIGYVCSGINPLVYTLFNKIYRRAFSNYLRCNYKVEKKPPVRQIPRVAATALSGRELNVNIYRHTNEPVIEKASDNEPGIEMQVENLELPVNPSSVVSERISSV

[6] = target: T2, Orexin receptor type 2 (Homo sapiens) (UniProt O43614); assay: Agonist activity at human orexin 2 receptor at 100 uM to 5 mM
T2 sequence (whole entry): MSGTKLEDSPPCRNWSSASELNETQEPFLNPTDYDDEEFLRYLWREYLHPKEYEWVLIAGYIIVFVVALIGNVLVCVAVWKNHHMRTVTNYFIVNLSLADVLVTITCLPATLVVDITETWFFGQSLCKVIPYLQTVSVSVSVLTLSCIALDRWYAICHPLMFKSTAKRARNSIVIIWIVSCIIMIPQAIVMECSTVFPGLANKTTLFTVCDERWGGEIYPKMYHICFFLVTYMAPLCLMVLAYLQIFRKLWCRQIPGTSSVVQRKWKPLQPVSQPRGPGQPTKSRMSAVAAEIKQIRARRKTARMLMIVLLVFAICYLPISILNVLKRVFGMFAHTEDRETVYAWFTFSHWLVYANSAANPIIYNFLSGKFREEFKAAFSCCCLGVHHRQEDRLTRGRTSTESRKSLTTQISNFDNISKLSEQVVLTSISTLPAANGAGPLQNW

[7] = target: Melanin-concentrating hormone receptor 1 (Homo sapiens) (UniProt Q99705); assay: Agonist activity at human MCH1 receptor at 100 uM to 5 mM
[8] = target: T3, Muscarinic acetylcholine receptor M1 (Homo sapiens) (UniProt P11229); assay: Agonist activity at human M1 receptor at 100 uM to 5 mM
T3 sequence (whole entry): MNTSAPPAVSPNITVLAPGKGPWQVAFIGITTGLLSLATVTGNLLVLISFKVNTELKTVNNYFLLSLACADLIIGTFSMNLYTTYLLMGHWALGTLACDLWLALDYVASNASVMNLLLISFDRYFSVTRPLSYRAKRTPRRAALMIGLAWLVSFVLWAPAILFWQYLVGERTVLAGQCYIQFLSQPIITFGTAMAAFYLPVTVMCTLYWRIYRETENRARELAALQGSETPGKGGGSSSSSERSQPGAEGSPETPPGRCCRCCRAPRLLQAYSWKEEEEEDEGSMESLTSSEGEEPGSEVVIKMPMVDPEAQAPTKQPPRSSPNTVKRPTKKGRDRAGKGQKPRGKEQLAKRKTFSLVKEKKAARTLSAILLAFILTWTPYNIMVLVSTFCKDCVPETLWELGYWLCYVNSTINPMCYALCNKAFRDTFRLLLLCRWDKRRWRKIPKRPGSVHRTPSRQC

[9] = target: T4, Parathyroid hormone/parathyroid hormone-related peptide receptor (Homo sapiens) (UniProt Q03431); assay: Agonist activity at human PTH receptor at 100 uM to 5 mM
T4 sequence (whole entry): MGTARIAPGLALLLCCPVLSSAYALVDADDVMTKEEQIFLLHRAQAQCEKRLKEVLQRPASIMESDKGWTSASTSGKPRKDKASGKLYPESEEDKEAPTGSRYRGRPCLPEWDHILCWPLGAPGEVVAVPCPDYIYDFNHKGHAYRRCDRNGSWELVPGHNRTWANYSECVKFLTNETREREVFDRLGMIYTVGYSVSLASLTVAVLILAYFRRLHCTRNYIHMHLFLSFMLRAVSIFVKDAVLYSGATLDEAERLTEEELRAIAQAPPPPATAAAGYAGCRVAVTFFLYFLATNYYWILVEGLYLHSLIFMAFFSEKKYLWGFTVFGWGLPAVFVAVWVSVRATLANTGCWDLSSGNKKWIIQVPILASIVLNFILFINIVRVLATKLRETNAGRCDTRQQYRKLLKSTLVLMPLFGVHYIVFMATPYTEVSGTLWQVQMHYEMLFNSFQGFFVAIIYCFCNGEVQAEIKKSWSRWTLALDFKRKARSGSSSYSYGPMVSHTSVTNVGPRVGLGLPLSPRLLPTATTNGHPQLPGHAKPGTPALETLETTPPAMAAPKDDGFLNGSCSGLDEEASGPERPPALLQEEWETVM

Measured: Activity

Sequence of Melanocyte-stimulating hormone receptor (Homo sapiens) (Q01726 whole entry, looked up): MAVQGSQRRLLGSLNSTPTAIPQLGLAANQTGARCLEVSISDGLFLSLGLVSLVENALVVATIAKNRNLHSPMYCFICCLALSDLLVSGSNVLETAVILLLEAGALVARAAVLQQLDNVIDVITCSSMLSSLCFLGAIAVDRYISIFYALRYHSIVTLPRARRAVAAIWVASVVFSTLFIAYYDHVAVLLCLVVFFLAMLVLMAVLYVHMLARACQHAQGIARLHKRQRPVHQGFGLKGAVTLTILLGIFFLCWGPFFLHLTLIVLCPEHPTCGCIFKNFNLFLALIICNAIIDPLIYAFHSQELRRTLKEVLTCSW
Sequence of Melanocortin receptor 4 (Homo sapiens) (P32245 whole entry): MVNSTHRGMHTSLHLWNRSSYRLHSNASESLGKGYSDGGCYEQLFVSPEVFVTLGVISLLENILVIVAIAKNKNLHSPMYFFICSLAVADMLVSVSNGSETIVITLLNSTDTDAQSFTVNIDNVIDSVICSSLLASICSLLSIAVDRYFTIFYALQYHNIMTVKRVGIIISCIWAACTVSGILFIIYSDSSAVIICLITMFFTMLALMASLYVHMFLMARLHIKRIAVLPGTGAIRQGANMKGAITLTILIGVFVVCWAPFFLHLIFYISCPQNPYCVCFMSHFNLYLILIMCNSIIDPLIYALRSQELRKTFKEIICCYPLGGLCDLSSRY
Sequence of Melanin-concentrating hormone receptor 1 (Homo sapiens) (Q99705 whole entry): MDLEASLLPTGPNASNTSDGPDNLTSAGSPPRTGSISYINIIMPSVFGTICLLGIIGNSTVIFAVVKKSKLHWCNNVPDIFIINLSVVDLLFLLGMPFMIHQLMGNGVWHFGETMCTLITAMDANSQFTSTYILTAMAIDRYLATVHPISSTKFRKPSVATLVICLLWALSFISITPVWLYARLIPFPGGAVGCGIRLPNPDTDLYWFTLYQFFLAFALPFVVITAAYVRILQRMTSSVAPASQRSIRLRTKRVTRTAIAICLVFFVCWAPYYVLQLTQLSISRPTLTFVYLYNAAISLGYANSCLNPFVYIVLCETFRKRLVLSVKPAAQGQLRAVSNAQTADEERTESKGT
Sequence of Melanocyte-stimulating hormone receptor (Mus musculus) (Q01727 whole entry, looked up): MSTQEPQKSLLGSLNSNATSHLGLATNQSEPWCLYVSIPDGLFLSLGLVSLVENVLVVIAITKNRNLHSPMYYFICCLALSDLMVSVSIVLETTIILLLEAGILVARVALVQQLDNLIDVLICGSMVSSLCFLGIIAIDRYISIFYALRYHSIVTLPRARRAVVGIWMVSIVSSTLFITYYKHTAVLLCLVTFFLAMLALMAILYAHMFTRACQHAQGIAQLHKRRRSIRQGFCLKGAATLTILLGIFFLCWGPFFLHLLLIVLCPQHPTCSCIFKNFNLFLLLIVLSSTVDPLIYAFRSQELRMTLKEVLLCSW
Sequence of Adrenocorticotropic hormone receptor (Mus musculus) (Q64326 whole entry): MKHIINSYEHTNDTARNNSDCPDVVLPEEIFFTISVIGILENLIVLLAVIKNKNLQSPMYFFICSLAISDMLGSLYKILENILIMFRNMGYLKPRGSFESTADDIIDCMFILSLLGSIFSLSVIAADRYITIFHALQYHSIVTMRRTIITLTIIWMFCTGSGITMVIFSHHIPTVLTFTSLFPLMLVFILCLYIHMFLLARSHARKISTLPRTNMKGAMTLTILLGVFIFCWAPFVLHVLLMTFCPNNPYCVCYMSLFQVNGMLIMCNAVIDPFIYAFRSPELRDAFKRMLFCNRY

O=c1c(O)c(-c2ccccc2F)oc2ccccc12
inactive: all assays above

COc1c(-c2cc(Br)ccc2F)oc2ccccc2c1=O
inactive: all assays above

O=c1c(O)c(-c2ccc(O)c(O)c2)oc2ccccc12
inactive: all assays above

O=c1c(O)c(-c2cccc(Br)c2)oc2ccccc12
inactive: all assays above

CN(C)c1ccc(-c2oc3ccccc3c(=O)c2O)cc1
inactive: all assays above

O=c1c(O)c(-c2ccc(Br)cc2F)oc2ccccc12
inactive: all assays above

O=c1c(O)c(-c2cc(Br)ccc2F)oc2ccccc12
inactive: all assays above

COc1ccc(-c2cc(=O)c3ccccc3o2)cc1O
inactive: all assays above

COc1ccc(C2C=Cc3ccccc3O2)cc1O (racemic)
inactive: all assays above

COc1ccc(C2C=Cc3ccccc3O2)cc1 (racemic)
inactive: all assays above

O=c1c(O)c(-c2ccc(O)cc2)oc2ccccc12
inactive: all assays above

CN(C)c1ccc(C2C=Cc3ccccc3O2)cc1 (racemic)
inactive: all assays above

CCN(CC)c1ccc(-c2oc3ccccc3c(=O)c2O)cc1
inactive: all assays above

O=c1cc(-c2ccc(O)cc2)oc2ccccc12
inactive: all assays above

O=c1c(O)c(-c2ccc(Cl)cc2Cl)oc2ccccc12
inactive: all assays above

CCOC(=O)COc1c(-c2cc(Br)ccc2F)oc2ccccc2c1=O
inactive: all assays above

O=c1c(O)c(-c2c(F)ccc(F)c2Cl)oc2ccccc12
inactive: all assays above

COc1cc(-c2cc(=O)c3ccccc3o2)ccc1O
inactive: all assays above
